Measured values reported in patent US20040082503A1, “Methods for treatment of diabetes using peptide analogues of insulin” (Neurocrine Biosciences, Inc., priority 1998, published 2004).
Several values for one entry are separate records, joined by “and”; a condition that tells them apart may be missing. Equal values may be shown once.

Experiments:
[1] = tested on: Insulin specific NOD T cell clone PD12-2.40; test: Proliferation of insulin-specific NOD T cell clone PD12-2.40; format: cell-based, mouse (NOD); settings: for S.I. (Stimulation Index): clone PD12-2.40, 50 μM peptide, cpm with peptide/cpm in medium alone, Exp. 1 and 2
Experimental: (§1) Insulin specific NOD T cell lines were established by culturing lymphocytes isolated from islet-infiltrating populations by in vitro stimulation with either porcine insulin at 25 μg/ml and irradiated NOD islet cell in the presence of irradiated NOD spleen cells as antigen presenting cells and cytokines. To obtain the infiltrating lymphocytes the following procedures were performed (see Wegmann et al., Eur. J. Immunol. 24:1853, 1994): the pancreas from the NOD mouse was digested with collagenase and individual islets were isolated manually. The infiltrating lymphocytes were then obtained by mild trypsin digestion of the islets. The insulin specific T cell lines or clones were propagated by serial stimulation in the presence of NOD spleen cells, porcine insulin and lymphokines. Clones were obtained by limiting dilution of the B chain (9-23) specific T cell lines in the presence of the antigen presenting cells and porcine insulin at 25 μg/ml. Wells with a growing population of cells following limiting dilution were expanded in appropriate medium, and after one cycle of growth were tested for reactivity to the B chain (9-23) peptide of insulin by evaluating the proliferative response.
(§2) Insulin B chain (9-23) (SEQ ID NO:2) specific mouse (NOD) T cell clones were isolated from infiltrated islets as described in Example 2. Peptide analogues with single alanine substitutions were prepared as described in Example 1. The effect of each analogue on T cell proliferation was then evaluated using an assay performed in 96-well flat bottom microtiter plates (see Daniel et al., Eur. J. Immunol. 25:1056, 1995). Briefly 25,000 T cell clones along with 1 million irradiated NOD spleen cells were cultured in the presence of 50 μg/ml of insulin B chain 9-23 peptide or any of the alanine substituted peptides listed below in triplicate sets. The plates were incubated for a total of 72 hours in 7% carbon dioxide atmosphere with a pulse of 1 μCi/well of tritiated thymidine for the last 6-8 hours of culture. Cells were harvested on a glass fiber filter and the associated radioactivity was counted in a liquid scintillation counter. Results are expressed as mean counts per minute of triplicate wells.
NOD T cell clones were incubated in the presence of 50 μM of either the native B chain (9-23) peptide or NBI-6024. The data in Table 3 represent the mean of triplicate sample±standard error of the mean. Within Table 3, S.I. (Stimulation Index)=proliferation (cpm) in the presence of the peptide/proliferation (cpm) in medium alone.

[2] = tested on: Murine NOD T cell clone PD12-2.40 response to insulin B chain (9-23) peptide; test: Antagonism of T cell proliferation assay, clone PD12-2.40; format: cell-based, mouse (NOD); settings: for % Inhibition: N/A = no inhibition observed
Experimental: (§3) Peptide analogues of B chain (9-23) containing alanine substitutions at residue 12, 13, 15 or 16 or the doubly substituted peptide at positions 16 and 19 (A^16,19; NBI-6024) were prepared as described in Example 1. T cell antagonism was detected by evaluating the ability of the peptide analogues to inhibit T cell proliferation induced by native B chain (9-23) (SEQ ID NO:2). In this assay, antigen presenting cells were first irradiated and then incubated with the competing peptide analogue and the native B chain (9-23) peptide. T cells were then added to the culture. Various concentrations of candidate peptide analogues were included in cultures which were incubated for a total of 4 days. Following this incubation period, each culture was pulsed with 1 μCi of [^3H]-thymidine for an additional 12-18 hours. Cultures were then harvested on fiberglass filters and counted as above. Mean CPM and standard error of the mean were calculated from data determined in triplicate cultures.
(§4) Within Table 4, the control peptide, NBI-5096, is an unrelated peptide from myelin basic protein. The percent inhibition was calculated as: (1−experimental cpm/insulin peptide cpm)×100%.

[3] = tested on: lymph node and spleen cells from immunized NOD mice; test: Immunogenicity in NOD mice: proliferative response of lymph node/spleen cells of immunized mice; format: cell-based, NOD mouse
Experimental: FIGS. 17A and 17B are graphs showing the ability of a double substituted peptide (A^16,19) to evoke an immune response. Five female NOD mice were immunized subcutaneously with 20 mg/kg of soluble NBI-6024 on days 1, 6 and 12. On day 15, the mice were sacrificed, the inguinal lymph node cells removed and culture in the presence of varying concentrations (0-50 μM) of either NBI-6024 (FIG. 17A) or insulin B chain (9-23) peptide (FIG. 17B). The extent of T-cell proliferation was determined using ^3H-thymidine incorporation. The response is expressed as mean CPM±SEM of triplicate cultures.
Groups of 3-4 NOD mice were immunized with 100-400 μg of peptide analogues subcutaneously in mannitol acetate buffer three times within a period of 10-15 days. Following the last immunization, lymph node cells and/or spleen cells were used in a proliferation assay in which different concentrations of the immunizing peptide were cultured with the cells for 3-4 days. The last 18 hours of culture included tritiated thymidine. Cells were harvested and counted in a scintillation counter and the response is expressed as CPM±SEM.
The ability of the double substituted peptide NBI-6024 (A^16,19) to induce a cellular immune response in NOD mouse strain was next determined. Two female NOD mice were immunized with 10 mg/kg NBI-6024 either as an aqueous suspension or, as a control, emulsified in complete Freund's adjuvant (CFA). On Day 8, three days following the last injection, the mice were sacrificed, the spleen and inguinal lymph node cells were removed and pooled, and a single-cell suspension was prepared. Cells were cultured in the presence of varying concentrations (0-25 μM) of NBI-6024. The ability of these lymphoid cells to proliferate in response to NBI-6024 was measured in vitro by [^3H]-thymidine incorporation.

[4] = tested on: Murine NOD T cell clone PD12-2.35 response to insulin B chain (9-23) peptide; test: Antagonism of T cell proliferation assay, clone PD12-2.35; format: cell-based, mouse (NOD); settings: for % Inhibition: N/A = no inhibition observed
Experimental: as §3, §4

[5] = tested on: Insulin specific NOD T cell clone PD12-4.4; test: Proliferation of insulin-specific NOD T cell clone PD12-4.4; format: cell-based, mouse (NOD); settings: 50 μg/ml peptide, 72 h, 3H-thymidine; no antigen 350 cpm
Experimental: as §1, §2

[6] = B(9-23) 5 μM + 10 μM competing peptide
[7] = B(9-23) 5 μM + 50 μM competing peptide
[8] = T cells of Mouse #1 immunized with soluble NBI-6024, challenge peptide 1 μM, 0 μM 19,130 ± 2191
[9] = T cells of Mouse #1 immunized with soluble NBI-6024, challenge peptide 5 μM
[10] = T cells of Mouse #1 immunized with soluble NBI-6024, challenge peptide 25 μM
[11] = T cells of Mouse #2 immunized with soluble NBI-6024, challenge peptide 1 μM, 0 μM 21,588 ± 2326
[12] = T cells of Mouse #2 immunized with soluble NBI-6024, challenge peptide 5 μM
[13] = T cells of Mouse #2 immunized with soluble NBI-6024, challenge peptide 25 μM
[14] = T cells of Mouse #3 immunized with soluble NBI-6024, challenge peptide 1 μM, 0 μM 24,006 ± 2803
[15] = T cells of Mouse #3 immunized with soluble NBI-6024, challenge peptide 5 μM
[16] = T cells of Mouse #3 immunized with soluble NBI-6024, challenge peptide 25 μM

Row | Substance | CPM ± SEM [3, 8] | CPM ± SEM [3, 9] | CPM ± SEM [3, 10] | CPM ± SEM [3, 11] | CPM ± SEM [3, 12] | CPM ± SEM [3, 13] | CPM ± SEM [3, 14] | CPM ± SEM [3, 15] | CPM ± SEM [3, 16] | further results
1 | NBI-6024: insulin B chain 9-23 with alanine substitutions at positions 16 and 19 (SHLVEALALVAGERG) | 48,319 ± 1918 CPM | 160,673 ± 2269 CPM | 268,005 ± 11198 CPM | 54,519 ± 5666 CPM | 126,123 ± 13851 CPM | 202,707 ± 8125 CPM | 64,239 ± 9493 CPM | 140,836 ± 11778 CPM | 240,278 ± 15015 CPM | S.I. (Stimulation Index) [1]: 1.01 and 1.16; CPM ± SEM [2, 6]: 6,379 ± 1,485 CPM; % Inhibition [2, 6]: 30.0%; CPM ± SEM [2, 7]: 4,305 ± 941 CPM; % Inhibition [2, 7]: 52.9%; Cross-reactive response to Insulin B chain (9-23) ([3]; CFA-emulsified peptide): not seen; Proliferative response to challenge with the immunizing analogue ([3]; lymph node cells from mice immunized with the analogue in CFA, dose-dependent): strong proliferative response; Cross-reactive response to Insulin B chain (9-23) ([3]; lymphocytes from mice immunized with the soluble peptide): also responded to Insulin B chain (9-23); Proliferative response to NBI-6024 challenge in vitro ([3]; spleen and inguinal lymph node cells after soluble administered peptide): strong proliferative response; CPM ± SEM [4, 6]: 4,441 ± 626 CPM; % Inhibition [4, 6]: 43.0%; CPM ± SEM [4, 7]: 1,389 ± 218 CPM; % Inhibition [4, 7]: 82.0%
2 | Native 9-23: native peptide, residues 9-23 of human insulin B chain (SEQ ID NO:2) (SHLVEALYLVCGERG; Residues 9-23 of human insulin B chain; listed as Homo sapiens) [reference compound] | 16,870 ± 4469 CPM | 21,292 ± 3216 CPM | 33,317 ± 3619 CPM | 17,262 ± 602 CPM | 19,648 ± 2169 CPM | 30,612 ± 3557 CPM | 25,825 ± 3841 CPM | 58,567 ± 2737 CPM | 113,366 ± 515 CPM | Response (cpm) of T cell clone PD12-4.4 [5]: 10000 cpm; Response (cpm) of T cell clone PD12-2.40 ([1]; 50 μg/ml peptide, 72 h, 3H-thymidine, no antigen 682 cpm): 32221 cpm; S.I. (Stimulation Index) ([1]; listed as Insulin B Chain (9-23)): 96.16 and 98.4; CPM ± SEM ([2]; B(9-23) 5 μM alone, medium only 305 ± 13): 9,149 ± 1,062 CPM; CPM ± SEM ([4]; B(9-23) 5 μM alone, medium only 213 ± 17): 7,840 ± 528 CPM
